{"source": "patent US20250325710A1", "about": "“Advanced In Vivo Platform to Study Human Neural Maturation and Circuit Integration” (priority 2022, published 2025)", "key": {"[1]": {"tested_on": "blue light-evoked EPSCs in rat pyramidal cortical neurons", "format": "cell-based"}, "[2]": {"molecular_target": "element-binding protein (CBP) (Homo sapiens, UniProt Q92793)", "sequence (Q92793 whole entry)": "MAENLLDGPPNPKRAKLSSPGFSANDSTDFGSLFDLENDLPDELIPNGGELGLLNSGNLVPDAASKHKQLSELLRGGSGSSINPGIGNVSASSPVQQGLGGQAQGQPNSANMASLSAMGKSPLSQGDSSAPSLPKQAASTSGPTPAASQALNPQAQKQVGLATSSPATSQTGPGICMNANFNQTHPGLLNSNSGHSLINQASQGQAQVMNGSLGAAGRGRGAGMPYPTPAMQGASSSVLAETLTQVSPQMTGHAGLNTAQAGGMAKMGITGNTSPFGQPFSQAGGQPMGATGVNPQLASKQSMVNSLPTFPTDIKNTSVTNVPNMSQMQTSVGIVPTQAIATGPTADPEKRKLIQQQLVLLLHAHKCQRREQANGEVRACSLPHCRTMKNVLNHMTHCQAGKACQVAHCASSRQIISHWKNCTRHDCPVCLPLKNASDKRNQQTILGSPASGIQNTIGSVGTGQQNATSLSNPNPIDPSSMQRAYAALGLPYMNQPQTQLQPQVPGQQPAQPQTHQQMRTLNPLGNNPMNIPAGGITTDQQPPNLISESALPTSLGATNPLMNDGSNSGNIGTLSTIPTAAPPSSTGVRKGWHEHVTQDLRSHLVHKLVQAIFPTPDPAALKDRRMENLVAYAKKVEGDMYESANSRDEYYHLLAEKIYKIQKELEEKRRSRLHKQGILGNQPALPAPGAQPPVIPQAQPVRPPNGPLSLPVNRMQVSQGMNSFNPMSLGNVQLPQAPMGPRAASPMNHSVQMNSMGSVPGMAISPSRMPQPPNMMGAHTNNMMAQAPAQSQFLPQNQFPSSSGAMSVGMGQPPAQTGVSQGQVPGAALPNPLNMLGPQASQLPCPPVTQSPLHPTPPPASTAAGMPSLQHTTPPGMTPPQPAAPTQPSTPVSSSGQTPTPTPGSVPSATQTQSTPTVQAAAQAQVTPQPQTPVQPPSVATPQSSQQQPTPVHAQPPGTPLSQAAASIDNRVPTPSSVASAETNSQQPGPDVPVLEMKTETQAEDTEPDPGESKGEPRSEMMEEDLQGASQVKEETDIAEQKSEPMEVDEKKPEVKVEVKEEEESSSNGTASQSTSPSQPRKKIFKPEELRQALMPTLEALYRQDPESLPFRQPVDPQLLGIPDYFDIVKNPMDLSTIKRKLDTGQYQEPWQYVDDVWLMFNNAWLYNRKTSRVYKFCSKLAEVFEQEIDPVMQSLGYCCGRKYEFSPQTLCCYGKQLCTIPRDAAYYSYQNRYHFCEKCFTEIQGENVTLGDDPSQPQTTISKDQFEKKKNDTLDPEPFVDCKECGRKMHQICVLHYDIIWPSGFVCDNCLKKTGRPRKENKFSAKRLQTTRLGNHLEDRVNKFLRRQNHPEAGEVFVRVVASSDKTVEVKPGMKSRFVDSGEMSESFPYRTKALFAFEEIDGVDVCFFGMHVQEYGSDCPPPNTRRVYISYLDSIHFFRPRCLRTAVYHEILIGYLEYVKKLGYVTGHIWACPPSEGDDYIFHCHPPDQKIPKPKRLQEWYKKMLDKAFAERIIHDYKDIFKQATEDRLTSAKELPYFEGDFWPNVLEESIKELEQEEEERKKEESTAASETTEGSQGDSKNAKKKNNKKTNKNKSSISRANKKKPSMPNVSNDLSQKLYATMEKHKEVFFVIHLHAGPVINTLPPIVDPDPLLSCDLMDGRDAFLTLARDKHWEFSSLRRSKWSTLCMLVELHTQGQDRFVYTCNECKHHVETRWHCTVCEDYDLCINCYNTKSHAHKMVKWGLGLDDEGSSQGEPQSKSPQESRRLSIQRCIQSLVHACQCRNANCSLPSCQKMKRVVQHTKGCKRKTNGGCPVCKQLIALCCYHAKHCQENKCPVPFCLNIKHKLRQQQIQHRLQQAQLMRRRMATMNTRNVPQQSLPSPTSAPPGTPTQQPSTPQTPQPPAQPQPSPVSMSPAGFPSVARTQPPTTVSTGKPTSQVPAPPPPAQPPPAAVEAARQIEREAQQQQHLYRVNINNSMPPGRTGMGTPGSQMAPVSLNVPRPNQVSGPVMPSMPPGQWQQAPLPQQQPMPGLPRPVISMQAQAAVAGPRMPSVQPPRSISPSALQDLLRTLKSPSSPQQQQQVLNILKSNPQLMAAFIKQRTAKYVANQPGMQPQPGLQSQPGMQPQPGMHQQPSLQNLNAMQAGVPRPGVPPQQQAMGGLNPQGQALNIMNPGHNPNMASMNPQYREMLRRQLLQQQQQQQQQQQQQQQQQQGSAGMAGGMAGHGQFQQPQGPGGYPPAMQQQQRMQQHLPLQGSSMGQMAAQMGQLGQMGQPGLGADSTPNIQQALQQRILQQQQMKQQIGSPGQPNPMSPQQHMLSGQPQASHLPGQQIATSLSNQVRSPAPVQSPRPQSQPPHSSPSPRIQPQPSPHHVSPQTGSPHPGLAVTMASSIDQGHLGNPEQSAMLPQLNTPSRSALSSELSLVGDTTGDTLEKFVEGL", "settings": "cited from earlier work"}, "[3]": {"tested_on": "Wnt-stimulated cellular responses", "settings": "cited from earlier work"}, "[4]": {"tested_on": "Wnt processing and secretion", "settings": "cell-free assay; cited from earlier work"}, "PORCN [5]": {"tested_on": "PORCN", "settings": "read-out: EC50, Porcn inhibitor; cited from earlier work"}, "Wnt signaling": {"tested_on": "Wnt signaling", "settings": "TM3 cells; cited from earlier work"}, "AMPA receptor [6]": {"tested_on": "AMPA receptor", "test": "Whole-cell recordings of blue light-evoked EPSCs in rat pyramidal cortical neurons in acute brain slices (activation of t-hCS axons)", "format": "cell-based", "settings": "evoked by blue light activation of t-hCS axons; NBQX 10 μM"}, "AMPA receptor [7]": {"tested_on": "AMPA receptor", "test": "Whole-cell recordings of evoked EPSCs in t-hCS human neurons in acute thalamocortical slices", "format": "cell-based", "settings": "evoked by electrical stimulation of rat S1, internal capsule, white matter or t-hCS, or optogenetic activation of thalamic terminals; NBQX 10 μM"}, "Smo heptahelical domain": {"molecular_target": "Smo heptahelical domain (Homo sapiens, UniProt Q99835)", "sequence (Q99835 28-787)": "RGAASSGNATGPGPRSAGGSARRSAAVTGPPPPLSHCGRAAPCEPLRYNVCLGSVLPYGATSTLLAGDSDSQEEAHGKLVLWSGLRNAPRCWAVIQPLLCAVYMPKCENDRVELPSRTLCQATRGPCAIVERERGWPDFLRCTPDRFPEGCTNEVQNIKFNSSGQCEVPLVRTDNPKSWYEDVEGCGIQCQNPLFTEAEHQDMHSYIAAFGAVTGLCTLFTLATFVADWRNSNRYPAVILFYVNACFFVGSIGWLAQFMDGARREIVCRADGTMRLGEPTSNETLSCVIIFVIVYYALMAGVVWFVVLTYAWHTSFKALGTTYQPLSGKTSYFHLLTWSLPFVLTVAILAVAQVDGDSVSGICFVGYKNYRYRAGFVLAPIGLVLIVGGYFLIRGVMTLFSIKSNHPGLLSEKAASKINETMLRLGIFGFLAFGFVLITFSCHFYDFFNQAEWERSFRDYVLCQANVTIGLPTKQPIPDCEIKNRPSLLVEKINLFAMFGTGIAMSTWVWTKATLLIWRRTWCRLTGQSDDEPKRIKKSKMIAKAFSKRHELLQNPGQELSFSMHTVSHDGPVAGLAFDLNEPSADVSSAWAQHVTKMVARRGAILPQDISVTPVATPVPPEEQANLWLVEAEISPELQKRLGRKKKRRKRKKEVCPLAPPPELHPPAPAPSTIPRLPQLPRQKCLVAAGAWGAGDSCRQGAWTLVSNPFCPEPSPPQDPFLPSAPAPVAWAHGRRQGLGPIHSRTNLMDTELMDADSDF", "settings": "cited from earlier work"}, "TNKS2": {"molecular_target": "T1, TNKS2 (Homo sapiens, UniProt Q9H2K2)", "T1 sequence (Q9H2K2 1-1166)": "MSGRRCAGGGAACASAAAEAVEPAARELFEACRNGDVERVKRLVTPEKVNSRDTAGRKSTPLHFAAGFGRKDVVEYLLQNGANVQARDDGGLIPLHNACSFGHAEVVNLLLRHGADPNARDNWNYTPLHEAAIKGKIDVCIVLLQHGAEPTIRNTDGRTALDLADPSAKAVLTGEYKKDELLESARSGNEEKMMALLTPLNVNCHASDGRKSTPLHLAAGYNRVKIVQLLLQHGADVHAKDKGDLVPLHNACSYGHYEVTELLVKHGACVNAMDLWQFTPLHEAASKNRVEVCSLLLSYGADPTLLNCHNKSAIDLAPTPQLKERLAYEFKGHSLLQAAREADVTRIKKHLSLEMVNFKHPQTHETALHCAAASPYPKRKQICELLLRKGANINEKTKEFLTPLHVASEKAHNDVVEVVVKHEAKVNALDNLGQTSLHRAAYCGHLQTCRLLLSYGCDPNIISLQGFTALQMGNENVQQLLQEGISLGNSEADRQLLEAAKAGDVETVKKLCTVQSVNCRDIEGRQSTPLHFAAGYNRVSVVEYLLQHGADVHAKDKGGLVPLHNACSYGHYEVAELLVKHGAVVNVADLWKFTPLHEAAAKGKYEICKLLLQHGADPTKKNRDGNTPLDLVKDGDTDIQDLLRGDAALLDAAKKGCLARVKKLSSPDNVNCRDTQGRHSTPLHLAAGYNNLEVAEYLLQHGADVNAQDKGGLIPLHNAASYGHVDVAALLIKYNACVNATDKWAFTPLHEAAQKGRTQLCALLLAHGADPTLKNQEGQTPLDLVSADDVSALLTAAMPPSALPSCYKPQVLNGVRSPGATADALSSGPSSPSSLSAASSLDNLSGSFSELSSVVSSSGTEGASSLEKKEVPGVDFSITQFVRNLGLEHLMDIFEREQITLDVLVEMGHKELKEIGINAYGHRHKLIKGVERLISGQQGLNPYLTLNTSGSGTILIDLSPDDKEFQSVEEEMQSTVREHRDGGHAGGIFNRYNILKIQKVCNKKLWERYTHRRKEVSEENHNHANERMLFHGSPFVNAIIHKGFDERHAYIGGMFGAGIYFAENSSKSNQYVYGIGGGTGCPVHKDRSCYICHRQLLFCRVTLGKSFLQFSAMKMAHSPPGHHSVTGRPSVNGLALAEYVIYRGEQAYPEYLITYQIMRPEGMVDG", "settings": "cited from earlier work"}, "PORCN [8]": {"tested_on": "PORCN", "settings": "HEK293 cells; read-out: IC50, Wnt3A-mediated activation of a multimerized TCF-binding site driving luciferase; cited from earlier work"}}}
{"smiles": "Nc1ccncc1", "note": "[4-AP, 4 Amino-Pyridine]", "values": [{"measurement": "Effect on blue light-evoked responses in rat cortical neurons", "setting": "[1]", "result": "recovered"}]}
{"smiles": "O=C1[C@H](Cc2ccc(O)cc2)N2C(=O)CCN(C(=O)NCc3ccccc3)[C@H]2CN1Cc1cccc2ccccc12", "note": "[ICG-001]", "values": [{"measurement": "IC50", "setting": "[2]", "result": 3000, "unit": "nM"}]}
{"smiles": "Cc1ccc2nc(NC(=O)CSc3nc4c(c(=O)n3-c3ccccc3)SCC4)sc2c1", "note": "[IWP-2]", "values": [{"measurement": "Effect against Wnt-stimulated cellular responses", "setting": "[3]", "result": "no effect"}, {"measurement": "IC50", "setting": "[4]", "result": 27, "unit": "nM"}]}
{"smiles": "O=C(CSc1nc2c(c(=O)n1-c1ccccc1)SCC2)Nc1ccc(-c2ccccc2)cn1", "note": "[IWP-L6]", "values": [{"measurement": "EC50", "setting": "PORCN [5]", "result": 0.5, "unit": "nM"}]}
{"smiles": "Cc1cc(-c2ncc(CC(=O)Nc3ccc(-c4cnccn4)cn3)cc2C)ccn1", "note": "[LGK-974]", "values": [{"measurement": "IC50", "setting": "Wnt signaling", "result": 0.4, "unit": "nM"}]}
{"smiles": "NS(=O)(=O)c1cccc2c1c([N+](=O)[O-])cc1nc(O)c(O)nc12", "note": "[NBQX]", "values": [{"measurement": "Effect on short-latency EPSCs in rat pyramidal cortical neurons", "setting": "AMPA receptor [6]", "result": "blocked"}, {"measurement": "Effect on short latency EPSCs in human t-hCS neurons", "setting": "AMPA receptor [7]", "result": "blocked"}]}
{"smiles": "CNC1CCC(N(Cc2cccc(-c3ccncc3)c2)C(=O)c2sc3ccccc3c2Cl)CC1", "note": "(centres unmarked) [SAG]", "values": [{"measurement": "Kd", "setting": "Smo heptahelical domain", "result": 59, "unit": "nM"}]}
{"smiles": "COc1ccc(-n2c(SCCCN3C(=O)c4cccc5cccc(c45)C3=O)nnc2-c2ccncc2)cc1", "note": "[WIKI4]", "values": [{"measurement": "IC50", "setting": "TNKS2", "result": 15, "unit": "nM"}]}
{"smiles": "Cc1cc(-c2ccc(CC(=O)Nc3ccc(-c4cccnc4)cc3)cc2)ccn1", "note": "[Wnt-C59]", "values": [{"measurement": "IC50", "setting": "PORCN [8]", "result": 0.074, "unit": "nM"}]}
